{"source": "patent US20080004329A1", "about": "“Pharmaceutical compositions of ropinirole and methods of use thereof” (priority 2006, published 2008)", "key": {"[1]": {"conditions": "water at 20° C.; cited from earlier work"}, "guinea pigs": {"test_system": "guinea pigs", "assay": "Skin sensitization, induction and challenge", "assay_type": "in vivo", "conditions": "guinea pigs induced (with and without Freund's Complete Adjuvant) and challenged with 5% ropinirole HCl"}, "[2]": {"assay": "In vitro permeation, Franz cells, cadaver skin finite dose technique (Example 1)", "assay_type": "in vitro ADME, human", "procedure": "The in vitro human cadaver skin model has proven to be a valuable tool for the study of percutaneous absorption and the determination of topically applied drugs. The model uses human cadaver skin mounted in specially designed diffusion cells that allow the skin to be maintained at a temperature and humidity that match typical in vivo conditions (Franz, T. J., “Percutaneous absorption: on the relevance of in vitro data,” J. Invest Dermatol 64:190-195 (1975)). A finite dose (for example: 4-7 mg/cm^2) of formulation is applied to the outer surface of the skin and drug absorption is measured by monitoring its rate of appearance in the receptor solution bathing the inner surface of the skin. Data defining total absorption, rate of absorption, as well as skin content can be accurately determined in this model. The method has historic precedent for accurately predicting in vivo percutaneous absorption kinetics (Franz, T. J., “The finite dose technique as a valid in vitro model for the study of percutaneous absorption in man,” In: Skin: Drug Application and Evaluation of Environmental Hazards, Current Problems in Dermatology, vol. 7, G. Simon, Z. Paster, M Klingberg, M. Kaye (Eds), Basel, Switzerland, S. Karger, pages 58-68 (1978)).\nPercutaneous absorption was measured using the in vitro cadaver skin finite dose technique. Cryo-preserved, human cadaver trunk skin was obtained from a skin bank and stored in water-impermeable plastic bags at <−70° C. until used.\nPrior to the experiment, skin was removed from the bag, placed in approximately 37° C. water for five minutes, and then cut into sections large enough to fit on 1 cm^2 Franz Cells (Crown Glass Co., Somerville, N.J.). Briefly, skin samples were prepared as follows. A small volume of phosphate buffered saline (PBS) was used to cover the bottom of the Petri dishes. Skin disks generally depleted of fat layers were placed in the Petri dishes for hydration. A Stadie-Riggs manual tissue microtome was used for slicing excised skin samples. Approximately 2 mL of PBS was placed into the middle cavity of the microtome as slicing lubricant. Skin disks were placed, dermal side up, into the middle cavity of the microtome. Filter paper was soaked with PBS, inserted in the cavity just above the skin disk. The filter paper prevented the dermis from sliding onto the top of the cutting block and helped to insure more precise cutting. When all three blades of the microtome were assembled, the microtome was turned into the upright position. Using a regular and careful sawing motion the skin tissue was sliced in cross-section. The skin tissue slice was removed with the tweezers and placed in the Petri dish for hydration. Each skin slice was wrapped in Parafilm® (Pechiney Plastic Packaging, Inc., Chicago, Ill.) laboratory film and placed in water-impermeable plastic bags. Skin samples were identified by the donor and the provider code. If further storage was necessary, the skin slices were stored in the freezer at −20° C. until further use.\nThe epidermal cell (chimney) was left open to ambient laboratory conditions. The dermal cell was filled with receptor solution. Receptor solution for in vitro skin permeations was typically an isotonic saline at physiological pH. The receptor solution may also contain a drug solubilizer, for example, to increase lipophilic drug solubility in the receptor phase. […]"}, "[3]": {"assay": "Titration with NaOH for the experimental ionization profile in a hydroalcoholic base", "assay_type": "physicochemical", "conditions": "hydroalcoholic vehicle (ethanol 45%, propylene glycol 20%, water 25.58%), not gellified; read-out: apparent pKa from the experimental ionization profile", "source_text": "The following formulation was used for titration to determine the experimental ionization profile of ropinirole in a hydroalcoholic base: Ropinirole hydrochloride* 3.42% w/w, myristyl alcohol 1.00% w/w, diethylene glycol monoethylether 5.00% w/w, propylene glycol 20.00% w/w, absolute ethanol 45.00% w/w, and purified water 25.58% w/w (total 100; * ropinirole HCl 3.42% (MW=296.84) corresponds to ropinirole free base 3% (MW=260.38), ratio 1.14). The formulation was not gellified.\nThe ropinirole HC1 solution was titrated with NaOH 0.1 M solution. The solvent was the same as the formulation, in order to keep a constant composition. NaOH was chosen so as to limit dilution of the titrated formulation; but no dilution correction was made. The formulation was titrated by 0.5-1 mL increments where the pH change was small. Increments were reduced to 0.1 mL near the equivalence point. The pH was monitored with a glass electrode (Mettler Toledo InLab 432, Mettler-Toledo, Inc., Columbus, Ohio), and recorded with a Mettler Toledo MP. 230 pH meter (Mettler-Toledo, Inc., Columbus, Ohio).\nBased on the titration curve, the ionization rate [BH] was calculated according to Henderson-Hasselbalch equation for weak base: […]"}, "[4]": {"conditions": "cited from earlier work"}, "[5]": {"conditions": "human", "description": "In vitro data can be extrapolated to in vivo conditions in order to evaluate the gel dose for bioequivalence to ropinirole oral absorption. […] Therefore, an intermediate oral dose of 6 mg/day with BA=50% delivers a systemic dose of 3 mg/day. […] This corresponds to a daily dose of 9.5 mg ropinirole HCl (equivalent to 8.3 mg free base).\nBased on these pharmacokinetic parameters, the daily input rate can be estimated using the following equation: Ka=CL×Cp, where Ka is the daily input rate (absorption rate), CL the drug plasma clearance, and Cp the plasma concentration.\nScaled to the clinical daily input rate, the required skin surface can be determined using the following equation: S=Ka/JSS, wherein S is the application skin surface area, and JSS is the in vitro steady-state drug flux.\nAlternatively, the gel amount could be increased by 3.7 times (1 g instead of 0.3 g), and be applied to a 3.7 times larger skin area (185 cm instead of 50 cm^2).\nThis corresponds to a daily dose of 15 mg ropinirole HCl (equivalent to 13 mg free base)."}, "[6]": {"conditions": "EtOH(45)/Water(40)/PG(10), 5% drug"}}}
{"compound": "CCCN(CCC)CCc1cccc2c1CC(=O)N2.Cl", "note": "[Ropinirole hydrochloride, 4-[2-(dipropylamino)-ethyl]-1,3-dihydro-2H-indol-2-one monohydrochloride]", "values": [{"measurement": "solubility in water", "setting": "[1]", "value": 133, "unit": "mg/mL"}, {"measurement": "sensitization category", "setting": "guinea pigs", "value": "mild sensitizer"}, {"measurement": "skin permeation characteristics", "setting": "[2]; [6]", "value": "did not permeate well"}]}
{"compound": "CCCN(CCC)CCc1cccc2c1CC(=O)N2", "note": "[ropinirole free base]", "values": [{"measurement": "skin permeation characteristics", "setting": "[2]; [6]", "value": "good permeation characteristics"}, {"measurement": "peak flux", "setting": "[2]; EtOH(45)/Water(40)/PG(10), 5% drug, pH 9.5-10.0", "value": 3.5, "unit": "μg/cm^2/hr"}, {"measurement": "ropinirole remained in the epidermis", "setting": "[2]; after 48 hours", "value": "Approximately 20%"}, {"measurement": "Bioavailability in the receptor chamber fluid", "setting": "[2]; percent dose recovered in receptor fluid", "value": "about 40%"}]}
{"compound": "CCCN(CCC)CCc1cccc2c1CC(=O)N2", "note": "[ropinirole]", "values": [{"measurement": "pKa", "setting": "[3]", "value": 8}, {"measurement": "Body clearance", "setting": "[4]; REQUIP Prescribing Information", "value": "about 47 L/h"}, {"measurement": "maximum plasma levels (Cmax)", "setting": "[4]; repeated oral administration, 6 mg/day in 3 divided doses, steady state (Taylor et al.)", "value": 7.4, "unit": "ng/mL"}, {"measurement": "Ka, daily input rate (absorption rate), Ka=CL×Cp", "setting": "[5]", "value": 347.8, "unit": "µg/h"}]}
